One data set concerns the target T1, CYP2C19 (Homo sapiens, UniProt P33261).
T1 construct: purchased Sumitomo Chemical Co., Ltd; host or cells: yeast (microsomes)
Nature of the data set: Human CYP2C19 activity inhibition test (S-(+)-mephenytoin to 4'-hydroxymephenytoin). Particulars: test compound 10 μM, human CYP2C19 yeast expression system microsome, 4'-hydroxymephenytoin generated vs control; for CYP2C19 residual activity (%): 10 µM. It counts as in vitro ADME. The method, then:
(Human CYP2C19 Activity Inhibition Test)
CYP2C19 specifically participates in the metabolism reaction from S-(+)-mephenytoin to 4′-hydroxymephenytoin. Therefore, by use of an expression system CYP2C19, the production amount (concentration) of 4′-hydroxymephenytoin, serving as an index for CYP2C19 activity, was determined, whereby the inhibitory action of respective test substances was investigated.
(a) Metabolizing Activity Test
A solution of S-(+)-mephenytoin in methanol (125 μmol/L, 50 μL) and a solution of a test substance in methanol (25 μmol/L, 0, 10, 100, or 200 μL) were placed in a 10-mL glass test tube. The solvent was removed under a nitrogen gas at 40° C. A 75 μL mixture of 0.5M phosphate buffer (pH 7.4)-0.5 mM EDTA (20:10), 140 μL purified water, and 10 μL human CYP2C19 yeast expression system microsome (purchased from Sumitomo Chemical Co., Ltd.) were added.
Incubation was performed for 10 minutes at 37° C. Subsequently, aqueous 12% perchloric acid solution (50 μL) was added, to thereby stop the reaction.
After the reaction was stopped, an internal standard substance (I.S.) methyl p-hydroxybenzoate (100 μg/ mL, 50 μL), and diethyl ether (2 mL) were added. The mixture was shaken for 10 minutes, followed by centrifugation at 3,000 rpm for 10 minutes. The organic layer was separated, and the solvent was removed under a nitrogen gas at 40° C. The residue was dissolved in a 200 μL mobile phase, and the mixture was subjected to analysis by high performance liquid chromatography (HPLC).
In order to generate a calibration curve, the general procedure of the above process was repeated by use of 4′-hydroxymephenytoin solution instead of the S-(+)-mephenytoin solution. Quantitation was performed on the basis of the peak area ratio of 4′-hydroxymephenytoin to I.S. The amount of 4′-hydroxymephenytoin generated in the control sample was compared with that generated in the present of a test compound, and the results of comparison were used as an activity index.
HPLC was performed under the conditions described below (HPLC conditions A or HPLC conditions B).

Data set [1] has as its system gastric acid secreted under stimulation with histamine. Nature of the data set: Gastric acid secretion inhibition action, histamine-stimulated, acute Fistula method. It counts as in vivo, Sprague-Dawley (SD) rats. The conditions noted are these: SD rats, administered in the duodenum, histamine 8 mg/kg/h, total acid discharge at 3, 4 and 5 hours, Probit method. As to the method: (Gastric Acid Secretion Inhibition Action)
(1) Test Animals Employed were Sprague-Dawley (SD) Rats (7 Weeks Old, Male) Purchased from Charles River Japan, Inc. Before the Test, the Rats Were Fed for 5 Days or More.
Each test drug was suspended in, or dissolved in, 0.5% sodium carboxymethylcellulose solution, whereby a suspension or solution was prepared so as to attain 2.5 mL/kg.
(2) Measurement of Gastric Acid Secretion
The amount of gastric acid secreted under stimulation with histamine was measured on the rats fasted for 18 hours by use of the acute Fistula method as described by Hiramatsu et al. (Dig. Dis. Sci.,39, 689-697(1994)). Briefly, each rat was etherized lightly, and then a winged tubular needle filled with 3.8% citric acid solution was indwelled in the tail vein of the rat. The abdomen of the rat was opened, and the pyloric part of the stomach was ligated. Subsequently, a small hole was made in the duodenum, and the abdomen of the rat was closed with a feeding tube filled with saline indwelled. The inside of the stomach was washed with saline, a polyethylene-made Fistula tube (inner diameter: 4 mm) was set in the anterior stomach, and the cut portion of the anterior stomach was ligated and secured. The stomach and the duodenum were returned to the abdominal cavity, with the Fistula tube and the feeding tube exposed outside. The rat was placed in a Ballman cage II. Histamine was continuously administered through the winged injection needle which had been indwelled in the tail vein in advance (8 mg/kg/h, 1.38 mL/h). 15 Minutes thereafter, gastric juice of the rat was collected. Subsequently, collection of gastric juice was performed every one hour. Each time, the amount of the collected gastric juice was recorded, followed by titration with NaOH (0.1 mol/L) up to the end point pH 7.0. From the volume consumed for titration, acidity was calculated. The acid discharge amount was calculated as a product of the amount of the gastric juice and the acidity. Before starting the test, the rats were grouped so that the intra-group total amount of the gastric juice samples initially collected was the same between groups. Thereafter, each test drug was administered (2.5 mL/kg) in the duodenum through a feeding tube which had been attached to the duodenum in advance. To each rat of a control group, 0.5% Na-CMC solution was administered.
(3) Analysis of the Results
The data as obtained above are shown by way of mean±standard error. Total amount of acid discharge was obtained through summation of the amounts of acid discharge at three points in time; i.e., 3, 4 and 5 hours after initial collection of gastric juice. Percent inhibition of each group was computed from the total acid discharge amount of the control group and that of each group. On the basis of the percent inhibition calculated for each group, 50% effective dose (ED50) was computed by use of the Probit method.

The next data set concerns the target T2, H+/K+-ATPase (Sus scrofa, UniProt P19156).
T2 construct: The mucous membrane layer was homogenized in Tris-HCl buffer; from tissue; host or cells: pig stomach body, mucous membrane layer, membrane fraction from a sucrose interface
Nature of the data set: Proton pump inhibitory action: activity of inhibiting H+/K+-ATPase (at pH 1). It counts as biochemical. Particulars: pig gastric mucosa enzyme sample; test compounds pretreated in hydrochloric acid solution pH 1 (50% DMSO) for 15 minutes; read-out: Proton pump inhibitory action [IC50 (μmol/L)]. The text has this:
(Proton Pump Inhibitory Action)
(1) Preparation of Enzyme Sample (H^+/K^+-ATPase)
The stomach body removed from a pig, which had been stored in a frozen state, was separated into a muscle layer and a mucous membrane layer. The mucous membrane layer was homogenized in Tris-HCl buffer (20 mmol/L, pH 7.4) having a volume 5 times that of the layer and containing sucrose (0.25 mol/L) and EGTA (1 mmol/L) (hereinafter the mixture is referred to as Tris-HCl buffer) in a mixer. The homogenate was subjected to centrifugation (9,000×g, 30 minutes). The supernatant was softly placed on 8 mL Tris-HCl buffer (20 mmol/L, pH 7.4) containing 30% sucrose and 1 mmol/L EGTA. The mixture was subjected to ultracentrifugation at 100,000×g for 60 minutes. The interface fraction obtained through centrifugation was subjected to centrifugation (113,000×g, 60 minutes) twice. Pellet was suspended in Tris-HCl buffer, and the suspension was homogenized at low speed. The resultant homogenate served as an enzyme sample of interest and was stored at −80° C. The protein content of the sample was quantitated through use of a BCA protein assay reagent in accordance with a method described by Smith et al. (Anal. Biochem., 150, 76-85 (1985)). All these steps were performed under cooling with an ice bath.
(2) Activity of inhibiting H^+/K^+-ATPase (at pH 1)
Activity of inhibiting H^+/K^+-ATPase was measured in accordance with a method described in Biochem. Biophys. Res. Commun., 40, 880-886 (1970). Specifically, ATP was employed as a substrate, and inorganic phosphate, which is a resultant degradation product, was quantitated. In consideration of the solubility of test compounds, the test compounds were preliminarily treated with a hydrochloric acid solution (containing 50% DMSO, 1×10^−1 mol/L, pH 1). Each of the test compounds having different concentrations was added to the hydrochloric acid solution to thereby yield a 1,000—fold dilution, and thereafter, the diluted compound was allowed to stand for 15 minutes at room temperature. After these preliminary remedies, a 10 μL solution that had undergone the above preliminary remedies were added to 840 μL Tris-acetate buffer (40 mmol/L, pH 7.5, containing 2 mmol/L MgCl2, may be referred to as TE buffer) containing or not containing 20 mmol/L KCl. Subsequently, a 100 μL enzyme solution (5 μg protein) diluted with the TE buffer was added. Incubation was performed for 30 minutes at 37° C. Thereafter, a 50 μL ATP solution (40 mmol/L) which was dissolved in TE buffer not containing KCl was added to initiate enzyme reaction (total volume: 1 mL, ATP final concentration: 2 mmol/L). Incubation was performed for 30 minutes at 37° C. Subsequently, ice-cold 12% trichloroacetic acid (2 mL) was added, to thereby stop the enzyme reaction. A molybdenum reagent (1 mL, 3.75% ammonium molybdate/1.5 mol/L sulfuric acid) and butyl acetate (5 mL) were added, followed by mixing under vigorous shaking for 5 minutes. The absorption of the butyl acetate layer was measured at 310 nm. A standard curve was determined on the basis of absorption obtained through the similar procedure by use of KH2PO4 at different concentrations dissolved in 8% TCA solution, and inorganic phosphate content was calculated. Samples to be measured were prepared in duplicate. The measurements were averaged, and residual activity was obtained from the difference between the inorganic phosphate content as determined in a sample containing KCl and that as determined in a sample not containing KCl. Percentage inhibition activity was calculated with respect to the activity obtained from a control sample (DMSO), which was considered 100%. As the inhibitory potency of each test compound, IC50 values were computed and shown. All the test compounds were dissolved in dimethyl sulfoxide immediately before use.

The record followed here is patent US6884810B2, “Benzimidazole derivatives” (Zeria Pharmaceutical Co., Ltd., priority 2001, dated 2005).

A word on the ED50: it is the dose at which the effect has come halfway, by size or by number of responders. High values mean a need for a large dose, low ones an effect at a small dose.

T2 sequence (P19156 2-1034 limits assumed): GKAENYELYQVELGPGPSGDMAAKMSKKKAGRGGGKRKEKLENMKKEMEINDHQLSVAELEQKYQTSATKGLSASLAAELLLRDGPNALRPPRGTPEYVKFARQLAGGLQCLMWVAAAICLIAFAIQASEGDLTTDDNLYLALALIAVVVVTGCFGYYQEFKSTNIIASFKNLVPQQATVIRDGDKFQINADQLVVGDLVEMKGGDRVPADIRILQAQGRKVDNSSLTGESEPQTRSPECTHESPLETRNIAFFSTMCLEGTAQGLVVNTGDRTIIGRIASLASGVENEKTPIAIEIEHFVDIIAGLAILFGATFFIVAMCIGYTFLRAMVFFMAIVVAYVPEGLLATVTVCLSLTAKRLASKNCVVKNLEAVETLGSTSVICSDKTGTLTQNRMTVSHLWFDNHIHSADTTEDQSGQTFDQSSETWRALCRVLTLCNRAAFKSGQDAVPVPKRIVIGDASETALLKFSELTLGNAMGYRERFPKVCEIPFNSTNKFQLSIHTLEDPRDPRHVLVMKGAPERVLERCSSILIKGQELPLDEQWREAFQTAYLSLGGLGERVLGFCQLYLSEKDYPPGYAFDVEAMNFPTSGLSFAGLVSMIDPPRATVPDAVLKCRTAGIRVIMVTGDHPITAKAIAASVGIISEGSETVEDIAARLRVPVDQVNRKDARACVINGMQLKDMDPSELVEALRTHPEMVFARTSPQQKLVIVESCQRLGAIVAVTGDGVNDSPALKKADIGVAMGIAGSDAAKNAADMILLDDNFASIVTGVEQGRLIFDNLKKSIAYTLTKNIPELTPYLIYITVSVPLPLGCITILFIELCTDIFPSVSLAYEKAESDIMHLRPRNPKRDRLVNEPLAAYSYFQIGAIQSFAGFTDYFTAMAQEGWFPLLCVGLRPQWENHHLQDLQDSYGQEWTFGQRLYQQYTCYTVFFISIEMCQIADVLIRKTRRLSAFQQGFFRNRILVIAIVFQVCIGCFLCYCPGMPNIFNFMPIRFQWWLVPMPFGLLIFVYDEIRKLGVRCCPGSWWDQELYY
T2 sequence (P18434 whole entry partner): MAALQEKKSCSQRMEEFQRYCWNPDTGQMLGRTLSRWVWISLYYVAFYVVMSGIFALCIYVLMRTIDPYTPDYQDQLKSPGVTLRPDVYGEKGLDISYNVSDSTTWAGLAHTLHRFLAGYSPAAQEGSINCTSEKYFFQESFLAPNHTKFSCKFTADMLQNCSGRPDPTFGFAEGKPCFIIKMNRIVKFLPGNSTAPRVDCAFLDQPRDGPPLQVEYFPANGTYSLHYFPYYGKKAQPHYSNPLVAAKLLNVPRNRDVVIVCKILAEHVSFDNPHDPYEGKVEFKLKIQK
T1 sequence (P33261 whole entry): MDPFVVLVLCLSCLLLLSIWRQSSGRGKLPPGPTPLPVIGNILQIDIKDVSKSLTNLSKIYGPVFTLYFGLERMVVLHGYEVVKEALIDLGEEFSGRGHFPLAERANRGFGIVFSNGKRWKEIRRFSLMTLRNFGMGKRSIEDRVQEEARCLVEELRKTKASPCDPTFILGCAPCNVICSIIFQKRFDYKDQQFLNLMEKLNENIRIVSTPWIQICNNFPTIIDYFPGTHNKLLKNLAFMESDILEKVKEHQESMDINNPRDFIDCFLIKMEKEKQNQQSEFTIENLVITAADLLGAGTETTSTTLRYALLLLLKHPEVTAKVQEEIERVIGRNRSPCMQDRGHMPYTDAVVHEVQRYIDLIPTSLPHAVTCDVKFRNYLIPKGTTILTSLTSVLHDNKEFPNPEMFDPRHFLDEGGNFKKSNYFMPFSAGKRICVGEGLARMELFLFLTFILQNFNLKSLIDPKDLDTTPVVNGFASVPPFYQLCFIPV

Regarding `COc1c(OCCCC(F)(F)F)ccnc1C[S+]([O-])c1nc2ccccc2[nH]1` (single isomer, unassigned; (+)) [Example 5(1), (+)-2-[3-methoxy-4-(4,4,4-trifluorobutoxy)pyridin-2-yl-methanesulfinyl]-1H-benzimidazole], the “CYP2C19 residual activity (%)” value at CYP2C19 is 78.6%. Moreover, the ED50 in data set [1] (Rattus norvegicus) was determined as 0.9 mg/kg. Moreover, at H+/K+-ATPase, the IC50 came to 3.32 µmol/L.
In the case of `[O-][S+](Cc1cc(OCCCC(F)(F)F)ccn1)c1nc2ccccc2[nH]1` (single isomer, unassigned; (+)) [Example 11, (+)-2-[4-(4,4,4-trifluorobutoxy)pyridin-2-yl-methanesulfinyl]-1H-benzimidazole], the “Gastric-acid secretion inhibition action [ED50 (mg/kg)]” value in data set [1] turned out to be 0.50 mg/kg. The IC50 at H+/K+-ATPase came out at 3.77 µmol/L.
In the case of `[O-][S+](Cc1cc(OCCOCC(F)(F)F)ccn1)c1nc2ccccc2[nH]1` (single isomer, unassigned; (+)) [Example 14, (+)-2-{4-[2-(2,2,2-trifluoroethoxy)ethoxy]pyridin-2-yl-methanesulfinyl}-1H-benzimidazole], the “CYP2C19 residual activity (%)” value at CYP2C19 came out at 81.4%. Besides, in data set [1], the “Gastric-acid secretion inhibition action [ED50 (mg/kg)]” value is 0.42 mg/kg. For the same molecule, the IC50 on H+/K+-ATPase came out at 6.67 µmol/L.
The matching figures for `COc1c(OCCOCC(F)(F)F)ccnc1C[S+]([O-])c1nc2ccccc2[nH]1` (single isomer, unassigned; (-)) [Example 4, (−)-2-{3-methoxy-4-[2-(2,2,2-trifluoroethoxy)ethoxy]pyridin-2-yl-methylsulfinyl}-1H-benzimidazole]: 93.9%, 2.6 mg/kg and 3.46 µmol/L.
For `[O-][S+](Cc1cc(OCCOCC(F)(F)F)ccn1)c1nc2ccccc2[nH]1` (stereo not shown) [Example 12, 2-{4-[2-(2,2,2-trifluoroethoxy)ethoxy]pyridin-2-yl-methanesulfinyl}-1H-benzimidazole], the activity at 10 min, 10 µM on CYP2C19 (human, pH 7.4, probe S-(+)-mephenytoin (to 4'-hydroxymephenytoin), read-out: CYP2C19 residual activity (%)) was determined as 88.8%. On H+/K+-ATPase, the IC50 stood at 7.86 µmol/L.
